# Reference: ChEMBL document CHEMBL5303573, “Mapping human microbiome drug metabolism by gut bacteria and their genes” (Nature, 2019)
# Experiments:
# [1] = The drug is tested on Eubacterium ventriosum strain: ATCC27560 for biotransformation. The drug concentrations were measured before and after a 12-h incubation by liquid-chromatography-coupled mass spectrometry (LC–MS); assay type: ADME; set-up: dose 2 uM, timepoint 0 vs 12 hours; details: 2 µM
# [2] = The drug is tested on Dorea formicigenerans strain: ATCC27755 for biotransformation. The drug concentrations were measured before and after a 12-h incubation by liquid-chromatography-coupled mass spectrometry (LC–MS); details: 2 µM
# [3] = The drug is tested on Collinsella aerofaciens strain: ATCC25986 for biotransformation. The drug concentrations were measured before and after a 12-h incubation by liquid-chromatography-coupled mass spectrometry (LC–MS); details: 2 µM
# [4] = The drug is tested on Clostridium symbiosum strain: ATCC14940 for biotransformation. The drug concentrations were measured before and after a 12-h incubation by liquid-chromatography-coupled mass spectrometry (LC–MS); details: 2 µM
# [5] = akkermansia muciniphila, 12 h, 2 µM
# Description: The drug is tested on Akkermansia muciniphila strain: ATCC BAA-835 for biotransformation. The drug concentrations were measured before and after a 12-h incubation by liquid-chromatography-coupled mass spectrometry (LC–MS)
# [6] = The drug is tested on Bacteroides dorei strain: DSM17855 for biotransformation. The drug concentrations were measured before and after a 12-h incubation by liquid-chromatography-coupled mass spectrometry (LC–MS); details: phocaeicola dorei, 2 µM
# [7] = The drug is tested on Bacteroides fragilis strain: HMW610 for biotransformation. The drug concentrations were measured before and after a 12-h incubation by liquid-chromatography-coupled mass spectrometry (LC–MS); details: 2 µM
# [8] = The drug is tested on Blautia luti strain: DSM14534 for biotransformation. The drug concentrations were measured before and after a 12-h incubation by liquid-chromatography-coupled mass spectrometry (LC–MS); assay type: ADME; set-up: dose 2 uM, timepoint 0 vs 12 hours; details: 2 µM
# [9] = The drug is tested on Anaerotruncus colihominis strain: DSM17241 for biotransformation. The drug concentrations were measured before and after a 12-h incubation by liquid-chromatography-coupled mass spectrometry (LC–MS); details: 2 µM
# [10] = The drug is tested on Collinsella intestinalis strain: DSM13280 for biotransformation. The drug concentrations were measured before and after a 12-h incubation by liquid-chromatography-coupled mass spectrometry (LC–MS); details: 2 µM
# [11] = The drug is tested on Anaerococcus hydrogenalis strain: DSM7454 for biotransformation. The drug concentrations were measured before and after a 12-h incubation by liquid-chromatography-coupled mass spectrometry (LC–MS); details: 2 µM
# [12] = The drug is tested on Bacteroides xylanisolvens strain: DSM18836 for biotransformation. The drug concentrations were measured before and after a 12-h incubation by liquid-chromatography-coupled mass spectrometry (LC–MS); details: 2 µM
# [13] = The drug is tested on Alistipes indistinctus strain: DSM22520 for biotransformation. The drug concentrations were measured before and after a 12-h incubation by liquid-chromatography-coupled mass spectrometry (LC–MS); details: 2 µM
# [14] = The drug is tested on Clostridium scindens strain: ATCC35704 for biotransformation. The drug concentrations were measured before and after a 12-h incubation by liquid-chromatography-coupled mass spectrometry (LC–MS); details: 2 µM
# [15] = The drug is tested on Clostridium ramosum strain: DSM1402 for biotransformation. The drug concentrations were measured before and after a 12-h incubation by liquid-chromatography-coupled mass spectrometry (LC–MS); details: thomasclavelia ramosa, 2 µM
# [16] = The drug is tested on Ruminococcus gnavus strain: ATCC29149 for biotransformation. The drug concentrations were measured before and after a 12-h incubation by liquid-chromatography-coupled mass spectrometry (LC–MS); details: mediterraneibacter gnavus, 2 µM
# [17] = parabacteroides distasonis, 12 h, 2 µM
# Description: The drug is tested on Parabacteroides distasonis strain: ATCC8503 for biotransformation. The drug concentrations were measured before and after a 12-h incubation by liquid-chromatography-coupled mass spectrometry (LC–MS)
# [18] = The drug is tested on Coprococcus comes strain: ATCC27758 for biotransformation. The drug concentrations were measured before and after a 12-h incubation by liquid-chromatography-coupled mass spectrometry (LC–MS); assay type: ADME; set-up: dose 2 uM, timepoint 0 vs 12 hours; details: 2 µM
# [19] = The drug is tested on Enterococcus faecalis strain: V583 for biotransformation. The drug concentrations were measured before and after a 12-h incubation by liquid-chromatography-coupled mass spectrometry (LC–MS); details: 2 µM
# [20] = anaerostipes sp., 12 h, 2 µM
# Description: The drug is tested on Anaerostipes sp. strain: fecal isolate for biotransformation. The drug concentrations were measured before and after a 12-h incubation by liquid-chromatography-coupled mass spectrometry (LC–MS)
# [21] = The drug is tested on Parabacteroides merdae strain: ATCC43184 for biotransformation. The drug concentrations were measured before and after a 12-h incubation by liquid-chromatography-coupled mass spectrometry (LC–MS); details: 2 µM
# [22] = The drug is tested on Edwardsiella tarda strain: ATCC23685 for biotransformation. The drug concentrations were measured before and after a 12-h incubation by liquid-chromatography-coupled mass spectrometry (LC–MS); details: 2 µM
# [23] = The drug is tested on Bacteroides fragilis strain: ATCC43859 for biotransformation. The drug concentrations were measured before and after a 12-h incubation by liquid-chromatography-coupled mass spectrometry (LC–MS); details: 2 µM
# [24] = The drug is tested on Bacteroides vulgatus strain: ATCC8482 for biotransformation. The drug concentrations were measured before and after a 12-h incubation by liquid-chromatography-coupled mass spectrometry (LC–MS); details: phocaeicola vulgatus, 2 µM
# [25] = The drug is tested on Bifidobacterium breve strain: DSM20213 for biotransformation. The drug concentrations were measured before and after a 12-h incubation by liquid-chromatography-coupled mass spectrometry (LC–MS); details: 2 µM
# [26] = The drug is tested on Enterobacter cancerogenus strain: ATCC35316 for biotransformation. The drug concentrations were measured before and after a 12-h incubation by liquid-chromatography-coupled mass spectrometry (LC–MS); details: 2 µM
# [27] = The drug is tested on Clostridium asparagiforme strain: DSM15981 for biotransformation. The drug concentrations were measured before and after a 12-h incubation by liquid-chromatography-coupled mass spectrometry (LC–MS); assay type: ADME; set-up: dose 2 uM, timepoint 0 vs 12 hours; details: enterocloster asparagiformis, 2 µM
# [28] = enterocloster bolteae, 12 h, 2 µM
# Description: The drug is tested on Clostridium bolteae strain: ATCCBAA-613 for biotransformation. The drug concentrations were measured before and after a 12-h incubation by liquid-chromatography-coupled mass spectrometry (LC–MS)
# [29] = The drug is tested on Bacteroides caccae strain: ATCC43185 for biotransformation. The drug concentrations were measured before and after a 12-h incubation by liquid-chromatography-coupled mass spectrometry (LC–MS); details: 2 µM
# [30] = bacteroides stercoris, 12 h, 2 µM
# Description: The drug is tested on Bacteroides stercoris strain: ATCC43183 for biotransformation. The drug concentrations were measured before and after a 12-h incubation by liquid-chromatography-coupled mass spectrometry (LC–MS)
# [31] = The drug is tested on Providencia stuartii strain: ATCC25827 for biotransformation. The drug concentrations were measured before and after a 12-h incubation by liquid-chromatography-coupled mass spectrometry (LC–MS); details: 2 µM
# [32] = The drug is tested on Bacteroides pectinophilus strain: ATCC43243 for biotransformation. The drug concentrations were measured before and after a 12-h incubation by liquid-chromatography-coupled mass spectrometry (LC–MS); details: 2 µM
# [33] = The drug is tested on Ruminococcus torques strain: ATCC27756 for biotransformation. The drug concentrations were measured before and after a 12-h incubation by liquid-chromatography-coupled mass spectrometry (LC–MS); assay type: ADME; set-up: dose 2 uM, timepoint 0 vs 12 hours; details: 2 µM
# [34] = limosilactobacillus reuteri cf48-3a, 12 h, 2 µM
# Description: The drug is tested on Lactobacillus reuteri CF48-3A strain: BEI HM-102 for biotransformation. The drug concentrations were measured before and after a 12-h incubation by liquid-chromatography-coupled mass spectrometry (LC–MS)
# [35] = The drug is tested on Escherichia coli strain: BW25113 for biotransformation. The drug concentrations were measured before and after a 12-h incubation by liquid-chromatography-coupled mass spectrometry (LC–MS); details: 2 µM
# [36] = bifidobacterium adolescentis, 12 h, 2 µM
# Description: The drug is tested on Bifidobacterium adolescentis strain: ATCC 15703 for biotransformation. The drug concentrations were measured before and after a 12-h incubation by liquid-chromatography-coupled mass spectrometry (LC–MS)
# [37] = The drug is tested on Bifidobacterium longum subsp. Infantis strain: CCUG52486 for biotransformation. The drug concentrations were measured before and after a 12-h incubation by liquid-chromatography-coupled mass spectrometry (LC–MS); details: 2 µM
# [38] = segatella copri, 12 h, 2 µM
# Description: The drug is tested on Prevotella copri strain: DSM18205 for biotransformation. The drug concentrations were measured before and after a 12-h incubation by liquid-chromatography-coupled mass spectrometry (LC–MS)
# [39] = bacteroides thetaiotaomicron, 12 h, 2 µM
# Description: The drug is tested on Bacteroides thetaiotaomicron strain: 3731 for biotransformation. The drug concentrations were measured before and after a 12-h incubation by liquid-chromatography-coupled mass spectrometry (LC–MS)
# [40] = parabacteroides johnsonii, 12 h, 2 µM
# Description: The drug is tested on Parabacteroides johnsonii strain: DSM18315 for biotransformation. The drug concentrations were measured before and after a 12-h incubation by liquid-chromatography-coupled mass spectrometry (LC–MS)
# [41] = The drug is tested on Eubacterium rectale strain: ATCC33656 for biotransformation. The drug concentrations were measured before and after a 12-h incubation by liquid-chromatography-coupled mass spectrometry (LC–MS); details: agathobacter rectalis, 2 µM
# [42] = The drug is tested on Odoribacter splanchnicus strain: fecal isolate for biotransformation. The drug concentrations were measured before and after a 12-h incubation by liquid-chromatography-coupled mass spectrometry (LC–MS); details: 2 µM
# [43] = The drug is tested on Eubacterium hallii strain: DSM3353 for biotransformation. The drug concentrations were measured before and after a 12-h incubation by liquid-chromatography-coupled mass spectrometry (LC–MS); details: anaerobutyricum hallii, 2 µM
# [44] = The drug is tested on Providencia rettgeri strain: DSM1131 for biotransformation. The drug concentrations were measured before and after a 12-h incubation by liquid-chromatography-coupled mass spectrometry (LC–MS); assay type: ADME; set-up: dose 2 uM, timepoint 0 vs 12 hours; details: 2 µM
# [45] = The drug is tested on Bacteroides ovatus strain: ATCC8483 for biotransformation. The drug concentrations were measured before and after a 12-h incubation by liquid-chromatography-coupled mass spectrometry (LC–MS); details: 2 µM
# [46] = The drug is tested on Subdoligranulum variabile strain: DSM15176 for biotransformation. The drug concentrations were measured before and after a 12-h incubation by liquid-chromatography-coupled mass spectrometry (LC–MS); details: 2 µM
# [47] = The drug is tested on Clostridium sporogenes strain: ATCC15579 for biotransformation. The drug concentrations were measured before and after a 12-h incubation by liquid-chromatography-coupled mass spectrometry (LC–MS); details: 2 µM
# [48] = The drug is tested on Ruminococcus lactaris strain: ATCC29176 for biotransformation. The drug concentrations were measured before and after a 12-h incubation by liquid-chromatography-coupled mass spectrometry (LC–MS); details: 2 µM
# [49] = bacteroides intestinalis, 12 h, 2 µM
# Description: The drug is tested on Bacteroides intestinalis strain: DSM17393 for biotransformation. The drug concentrations were measured before and after a 12-h incubation by liquid-chromatography-coupled mass spectrometry (LC–MS)
# [50] = The drug is tested on Bacteroides finegoldii strain: DSM17565 for biotransformation. The drug concentrations were measured before and after a 12-h incubation by liquid-chromatography-coupled mass spectrometry (LC–MS); details: 2 µM
# [51] = The drug is tested on Bifidobacterium ruminantium strain: fecal isolate for biotransformation. The drug concentrations were measured before and after a 12-h incubation by liquid-chromatography-coupled mass spectrometry (LC–MS); details: 2 µM
# [52] = The drug is tested on Bacteroides sp. WH2 strain: WH2 for biotransformation. The drug concentrations were measured before and after a 12-h incubation by liquid-chromatography-coupled mass spectrometry (LC–MS); details: bacteroides sp. wh2, 12 h, 2 µM
SMILES,Bacterial Biotransformation [1],Bacterial Biotransformation [2],Bacterial Biotransformation [4],Bacterial Biotransformation [5],Bacterial Biotransformation [9],Bacterial Biotransformation [10],Bacterial Biotransformation [11],Bacterial Biotransformation [16],Bacterial Biotransformation [18],Bacterial Biotransformation [20],Bacterial Biotransformation [26],Bacterial Biotransformation [28],Bacterial Biotransformation [29],Bacterial Biotransformation [31],Bacterial Biotransformation [33],Bacterial Biotransformation [34],Bacterial Biotransformation [35],Bacterial Biotransformation [37],Bacterial Biotransformation [39],Bacterial Biotransformation [40],further results
Nc1nc(NC2CC2)c2ncn([C@H]3C=C[C@@H](CO)C3)c2n1.Nc1nc(NC2CC2)c2ncn([C@H]3C=C[C@@H](CO)C3)c2n1.O=S(=O)(O)O [ABACAVIR SULFATE],Compound NOT metabolized,Compound NOT metabolized,Compound NOT metabolized,Compound NOT metabolized,Compound NOT metabolized,Compound NOT metabolized,Compound NOT metabolized,Compound NOT metabolized,Compound NOT metabolized,Compound NOT metabolized,Compound NOT metabolized,Compound NOT metabolized,Compound NOT metabolized,Compound NOT metabolized,Compound NOT metabolized,Compound NOT metabolized,Compound NOT metabolized,Compound NOT metabolized,Compound NOT metabolized,Compound NOT metabolized,Bacterial Biotransformation [3]: Compound NOT metabolized; Bacterial Biotransformation [6]: Compound NOT metabolized; Bacterial Biotransformation [7]: Compound NOT metabolized; Bacterial Biotransformation [8]: Compound NOT metabolized; Bacterial Biotransformation [12]: Compound NOT metabolized; Bacterial Biotransformation [13]: Compound NOT metabolized; Bacterial Biotransformation [14]: Compound NOT metabolized; Bacterial Biotransformation [15]: Compound NOT metabolized; Bacterial Biotransformation [17]: Compound NOT metabolized; Bacterial Biotransformation [19]: Compound NOT metabolized; Bacterial Biotransformation [21]: Compound NOT metabolized; Bacterial Biotransformation [22]: Compound NOT metabolized; Bacterial Biotransformation [23]: Compound NOT metabolized; Bacterial Biotransformation [24]: Compound NOT metabolized; Bacterial Biotransformation [25]: Compound NOT metabolized; Bacterial Biotransformation [27]: Compound NOT metabolized; Bacterial Biotransformation [30]: Compound NOT metabolized; Bacterial Biotransformation [32]: Compound NOT metabolized; Bacterial Biotransformation [36]: Compound NOT metabolized; Bacterial Biotransformation [38]: Compound NOT metabolized
CCCCCOC(=O)Nc1nc(=O)n([C@@H]2O[C@H](C)[C@@H](O)[C@H]2O)cc1F [CAPECITABINE],Compound NOT metabolized,Compound NOT metabolized,Compound NOT metabolized,Compound NOT metabolized,Compound NOT metabolized,Compound NOT metabolized,Compound NOT metabolized,Compound NOT metabolized,Compound NOT metabolized,Compound NOT metabolized,Compound metabolized,Compound NOT metabolized,Compound NOT metabolized,Compound NOT metabolized,Compound NOT metabolized,Compound metabolized,Compound metabolized,Compound metabolized,Compound NOT metabolized,Compound NOT metabolized,Bacterial Biotransformation [41]: Compound metabolized; Bacterial Biotransformation [42]: Compound metabolized; Bacterial Biotransformation [43]: Compound NOT metabolized; Bacterial Biotransformation [44]: Compound NOT metabolized; Bacterial Biotransformation [45]: Compound NOT metabolized; Bacterial Biotransformation [46]: Compound NOT metabolized; Bacterial Biotransformation [47]: Compound NOT metabolized; Bacterial Biotransformation [48]: Compound NOT metabolized; Bacterial Biotransformation [49]: Compound NOT metabolized; Bacterial Biotransformation [50]: Compound NOT metabolized; Bacterial Biotransformation [51]: Compound NOT metabolized; Bacterial Biotransformation [52]: Compound NOT metabolized
